According to patent EP2002836B1, “Cyclocondensed azaindoles active as kinase inhibitors” (Nerviano Medical Sciences S.r.l., priority 2007, dated 2008):

Tests used:
AKT1 = AKT1 (Homo sapiens, UniProt P31749); experiment: Biochemical assay for inhibitors of AKT1 kinase activity (33P trans-phosphorylation, Dowex resin); set-up: made in house; conditions: 5 nM enzyme, 132 microM ATP, 30 microM peptide substrate; read-out: AKT1 IC50 (µM) Biochem assay
Description: (§1) The N-terminal GST fusion proteins used for the assays were prepared according to the methods described in Kumar, C. C. Biochem. Biophys. ACTA 2001, 1526, 257-268, and in Alessi, D. R.. Biochem. J. 1998 331, 299-308.
The inhibitory activity of putative kinase inhibitors and the potency of selected compounds were determined using a trans-phosphorylation assay.
A specific substrate was incubated with the kinase in appropriate buffer conditions in the presence of ATP traced with ^33P-γ-ATP (gamma phosphate-labeled, Redivue™ Code Number AH9968, 1000-3000Ci/mmole, Amersham Biosciences Piscataway, NJ, USA), optimal cofactors and test compound.
At the end of the phosphorylation reaction, more than 98% cold and radioactive ATP were captured by an excess of Dowex ion exchange resin. The resin was allowed to settle to the bottom of reaction wells by gravity. Supernatant, containing substrate peptide, was subsequently withdrawn and transferred into a counting plate, and radioactivity (corresponding to phosphate incorporated into peptide) was evaluated by β-counting.
Kinase buffer was composed of 50 mM TRIS pH 7.5 containing10 mM MgCl2, 1 mM DTT, 3 microM Na3VO4, and 0.2 mg/mL BSA. 3X KB is buffer of the same composition and pH as KB, but with three times the concentration of each component. iii.Assay conditions (final concentrations) for AKT1.
The kinase assay was run with a final enzyme concentration of 5 nM, in the presence of 132 microM ATP, 0.88 nM ^33P-γ-ATP and 30 microM substrate, a carboxy-terminally biotinylated peptide of the following sequence: ARKRERTYSFGHHA-biotin. The peptide was obtained in batches of >95% peptide purity from PRIMM labs Inc. (Boston MA, USA).
The "test" mixture of 15 microL consisting of: • 1) 5 µl/well of 3x Enzyme mix (done in Kinase Buffer 3X), • 2) 5 µl/well of 3x substrate and ATP mix (done in ddH2O), together with ^33P-γ-ATP, • 3) 5 µl/well of 3x test compounds (diluted into ddH2O - 3% DMSO).
For % inhibition studies, dilution plates at 1 mM, 10 microM and 100 microM were prepared in 100% DMSO, then diluted to 3X final desired concentration (30, 3 and 0.3 microM) in ddH2O, 3% DMSO. A Multimek 96 (Beckman Coulter, Inc. 4300 N. Harbor Boulevard, P.O. Box 3100 Fullerton, CA 92834-3100 USA) was used for compound pipetting into test plates.
For IC50 determination, starting solutions of 30 microM compound in 3% DMSO were derived from 1 mM/100% DMSO stock solutions. These 30 microM starting solutions were used for generation of a further 9 serial 1/3 dilutions in ddH20, 3% DMSO, so as to generate a 10-point dilution curve at 3X the final assay concentration. Serial dilution was conducted in 96-well plates using a Biomek 2000 (Beckman Coulter) system. Dilution curves of 7 compounds/plate were prepared, and each plate also included a 10-point dilution curve of Staurosporine, as well as several negative and positive control wells.
384-well plates, V bottom (test plates) are prepared with 5 µl of the compound dilution (3X) and then placed onto a PlateTrak 12 robotized station (Perkin Elmer; the robot has one 384-tips pipetting head for starting the assay plus one 96-tips head for dispensing the resin) together with one reservoir for the Enzyme mix (3X) and one for the ATP mix (3X).
At the start of the run, the robot aspirates 5 µl of ATP mix, makes an air gap inside the tips (3 µl) and aspirates 5 µl of AKT mix. The following dispensation into the plates allows the kinase reaction to start upon 3 cycles of mixing, done by the robot itself.
The robot incubates the plates for 60 minutes at room temperature, and then stops the reaction by pipetting 70 µl of dowex resin suspension into the reaction mix. Three cycles of mixing are done immediately after the addition of the resin.
Another mixing cycle is performed after all the plates are stopped, this time using normal tips: the plates are then allowed to rest for about one hour in order to maximize ATP capture. […]

AKT2 = target: T1, AKT2 (Homo sapiens, UniProt P31751); experiment: Biochemical assay for inhibitors of AKT2 kinase activity (33P trans-phosphorylation, Dowex resin); conditions: 10 nM enzyme, 396 microM ATP, 8.5 microM peptide substrate; read-out: AKT2 IC50 (µM) Biochem assay
T1 construct: made in house
Description: as §1
(§2) The in vitro kinase inhibition assay was conducted in the same way as described for AKT1. The kinase assay was run with a final enzyme concentration of 10 nM, in the presence of 396 microM ATP, 0.88 nM ^33P-γ-ATP and 8.5 microM substrate, a carboxy-terminally biotinylated peptide of the following sequence: ARKRERTYSFGHHA-biotin. The peptide was obtained in batches of >95% peptide purity from PRIMM labs Inc. (Boston MA, USA).

AKT3 = AKT3 (Homo sapiens, UniProt Q9Y243); experiment: Biochemical assay for inhibitors of AKT3 kinase activity (33P trans-phosphorylation, Dowex resin); conditions: 1 nM enzyme, 180 microM ATP, 28.5 microM peptide substrate; read-out: AKT3 IC50 (µM) Biochem assay
Description: as §1
as §2, with “1” for “10”, “180” for “396”, “28.5” for “8.5”

AKT1, sequence (P31749 whole entry, the tested form may be a part): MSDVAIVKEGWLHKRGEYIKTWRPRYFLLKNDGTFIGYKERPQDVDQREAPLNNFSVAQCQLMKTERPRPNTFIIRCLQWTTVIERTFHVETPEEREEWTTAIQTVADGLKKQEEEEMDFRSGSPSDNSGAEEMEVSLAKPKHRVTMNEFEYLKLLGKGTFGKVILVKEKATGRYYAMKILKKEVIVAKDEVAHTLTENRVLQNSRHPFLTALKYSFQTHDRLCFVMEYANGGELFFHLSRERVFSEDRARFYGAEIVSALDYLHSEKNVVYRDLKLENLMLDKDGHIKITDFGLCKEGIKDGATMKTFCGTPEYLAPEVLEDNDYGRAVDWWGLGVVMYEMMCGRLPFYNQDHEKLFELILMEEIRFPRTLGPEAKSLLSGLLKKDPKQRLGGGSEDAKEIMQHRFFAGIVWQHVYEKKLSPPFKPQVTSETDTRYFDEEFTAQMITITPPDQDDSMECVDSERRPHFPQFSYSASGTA
T1 sequence (P31751 whole entry, species assumed): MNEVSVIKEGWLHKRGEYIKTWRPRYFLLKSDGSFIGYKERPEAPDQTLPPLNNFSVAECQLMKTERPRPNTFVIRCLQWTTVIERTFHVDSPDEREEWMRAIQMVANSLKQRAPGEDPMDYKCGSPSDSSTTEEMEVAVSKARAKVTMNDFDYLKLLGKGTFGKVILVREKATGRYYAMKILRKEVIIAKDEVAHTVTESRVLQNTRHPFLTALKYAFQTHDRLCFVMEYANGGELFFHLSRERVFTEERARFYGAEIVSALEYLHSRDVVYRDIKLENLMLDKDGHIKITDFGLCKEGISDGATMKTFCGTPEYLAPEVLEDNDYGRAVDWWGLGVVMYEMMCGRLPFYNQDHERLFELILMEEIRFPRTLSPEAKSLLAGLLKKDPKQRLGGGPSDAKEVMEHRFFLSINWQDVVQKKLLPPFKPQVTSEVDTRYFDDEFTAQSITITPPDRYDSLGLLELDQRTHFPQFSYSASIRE
AKT3, sequence (Q9Y243 2-479): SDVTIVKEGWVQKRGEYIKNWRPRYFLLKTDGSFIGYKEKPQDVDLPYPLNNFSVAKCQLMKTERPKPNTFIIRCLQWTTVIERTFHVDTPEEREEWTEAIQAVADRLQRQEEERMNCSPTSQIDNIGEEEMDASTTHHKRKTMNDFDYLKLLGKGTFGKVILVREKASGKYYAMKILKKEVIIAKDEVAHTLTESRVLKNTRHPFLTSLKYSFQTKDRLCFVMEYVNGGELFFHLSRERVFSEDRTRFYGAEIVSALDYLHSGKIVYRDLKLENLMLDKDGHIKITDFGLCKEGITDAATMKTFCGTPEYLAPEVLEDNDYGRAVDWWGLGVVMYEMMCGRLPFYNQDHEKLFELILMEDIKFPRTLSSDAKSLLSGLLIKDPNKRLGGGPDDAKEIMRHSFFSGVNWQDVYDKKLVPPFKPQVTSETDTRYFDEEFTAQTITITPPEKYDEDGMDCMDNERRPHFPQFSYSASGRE

Row | SMILES | IC50 (AKT1) [µM] | IC50 (AKT2) [µM] | IC50 (AKT3) [µM]
1 | NC[C@H](Cc1ccccc1)NC(=O)c1cc2c3c(nccc3c1)NC2 [Cpd. 7, N-[(1S)-2-amino-1-benzylethyl]-1,2-dihydropyrrolo[4,3,2-ij]isoquinoline-4-carboxamide] | 0.132 | 0.797 | 0.717
2 | O=C(N[C@H](CN1CCCC1)c1ccccc1)c1cc2c3c(nccc3c1)NC2 [Cpd. 8, N-[(1S)-1-phenyl-2-pyrrolidin-1-ylethyl]-1,2-dihydropyrrolo[4,3,2-ij]isoquinoline-4-carboxamide] | 0.431 | 1.86 | 1.06
